Data from patent US20240415790A1, “A COMPOSITION FOR USE IN THE TREATMENT OF INTERVERTEBRAL DISC HERNIATION” (STAYBLE THERAPEUTICS AB, priority 2020, published 2024).

Columns and labels:
[1] = test system: patients with chronic discogenic low back pain; experiment: Randomized placebo-controlled single ascending dose study, safety and tolerability of intradiscal injection; format: in vivo, human
Excerpt: The study was a randomized, double-blinded, placebo-controlled, single ascending dose study with the primary objective to evaluate safety and tolerability following intradiscal injection of LA in Omnipaque or placebo (Omnipaque) in 15 patients with chronic discogenic low back pain. The secondary objective was to assess effects on the NP and disc height using T2-weighted MRI. […] Prior to dose escalation, the safety review committee assessed all safety data up to Visit 3 (1 week after treatment). In case of any safety or tolerability concerns, dosing could be discontinued, or the planned dose could be lowered. The test product in this study was containing the active ingredient (S)-LA, which was provided to the site as a sterile solution in a syringe for single use. The LA doses administered were 45, 90 and 180 mg in a volume of 1.5 mL, corresponding to LA concentrations of 30, 60 and 120 mg/mL. The formulation for administration was prepared extempore and contained the contrast agent iohexol (Omnipaque™) and water for injection. The final concentration of iohexol in the injected solution was 388 mg/mL. Small amounts of tromethamine, Na2Ca edetate and HCl were also present. The solution was clear and colourless to slightly coloured. At the treatment day, patients received premedication with a sedative or anxiolytic and antibiotics, given as an i.v. infusion approximately 15 min before the intradiscal injection. The patient was placed in the right lateral decubitus position and injection was done using the two-needle technique under fluoroscopy guidance. Once correct intradiscal needle placement had been confirmed, a small volume (approximately 0.5 mL) of the formulation was first injected slowly (during half a minute) to verify that the distribution of the injectate was confined to the disc and that there was no leakage. If no leakage had occurred within half a minute, this procedure was repeated twice until the entire volume (1.5 mL) had been injected. If there was any leakage from the disc during injection, either after injection of a small volume or the entire volume (1.5 mL), the injection was interrupted. […] All patients stayed overnight at the clinic after the injection, for observation and safety assessments. After leaving the clinic, patients were to be treated with analgesics and/or other measures according to standard clinical practice. They were also given advice on restricted physical activity during the first week. Physical examination, blood pressure, heart rate, electrocardiogram (ECG), clinical chemistry and hematology were assessed using routine clinical methods. Pain during and 15 min after injection was measured using a VAS scale (0-100 mm) and the patient reported whether or not the pain reproduced the pain normally experienced in terms of location and type of pain. The distribution of Omnipaque within the IVD was documented according to the Dallas discogram scale. Local site reactions to the injection were noted, and AEs were graded for seriousness, intensity, and causality to the treatment. SAEs were defined according to the International Conference of Harmonisation guideline E2A.

[2] = test system: collagen II; experiment: Immunohistochemical analysis of collagen II in porcine IVD; format: in vivo; settings: pig, LA 60 mg/mL, treated vs untreated IVDs
Procedure: (§1) Since effects of LA on the NP in the subsequent clinical study was planned to be assessed using MRI, the third series focused on the effects of LA (0.2 mL, 60 mg/mL) on sclerotization as measured by T2-weighted MRI. In addition, effects of LA on the expression of collagen I and II were studied by immunohistochemistry (IHC). The macroscopic changes after LA at 60 mg/mL were similar to those described above. The tissue was dehydrated in graded ethanol and embedded in paraffin. Sections were cut on a microtome, dewaxed, and incubated with polyclonal primary antibodies against collagen I (Abcam 34710) or II (Abcam 34712). The antibodies were diluted 250 (collagen I) or 200 (collagen II) times in phosphate-buffered saline containing 1% bovine serum albumin. Incubation was done at room temperature for 60 min. The sections were then incubated for 30 min at room temperature with horseradish peroxidase-conjugated secondary antibodies (Mach 2 Uni HRP, Biocare Medical) and immunoreactivity was visualized using diaminobenzidine (Biocare Medical).

[3] = test system: collagen I; experiment: Immunohistochemical analysis of collagen I in porcine IVD; format: in vivo; settings: pig, LA 60 mg/mL, treated vs untreated IVDs
Procedure: as §1

CC(O)C(=O)O (stereo not drawn) [LA, lactic acid]
Adverse events by causality, Possible, m number of events ([1]; LA 30 mg/ml (n = 3)): 0
Adverse events by causality, Possible, n (%) number of patients ([1]; LA 30 mg/ml (n = 3)): 0
Adverse events by causality, Probable, m number of events ([1]; LA 30 mg/ml (n = 3)): 1
Adverse events by causality, Probable, n (%) number of patients ([1]; LA 30 mg/ml (n = 3)): 1 (33%)
Adverse events by causality, Unlikely, m number of events ([1]; LA 30 mg/ml (n = 3)): 3
Adverse events by causality, Unlikely, n (%) number of patients ([1]; LA 30 mg/ml (n = 3)): 2 (67%)
Adverse events by severity, Mild, m number of events ([1]; LA 30 mg/ml (n = 3)): 2
Adverse events by severity, Mild, n (%) number of patients ([1]; LA 30 mg/ml (n = 3)): 1 (33%)
Adverse events by severity, Moderate, m number of events ([1]; LA 30 mg/ml (n = 3)): 2
Adverse events by severity, Moderate, n (%) number of patients ([1]; LA 30 mg/ml (n = 3)): 1 (33%)
Adverse events by severity, Severe, m number of events ([1]; LA 30 mg/ml (n = 3)): 0
Adverse events by severity, Severe, n (%) number of patients ([1]; LA 30 mg/ml (n = 3)): 0
Any adverse event, m number of events ([1]; LA 30 mg/ml (n = 3)): 4
Any adverse event, n (%) number of patients ([1]; LA 30 mg/ml (n = 3)): 2 (67%)
Any serious adverse event, m number of events ([1]; LA 30 mg/ml (n = 3)): 0
Any serious adverse event, n (%) number of patients ([1]; LA 30 mg/ml (n = 3)): 0
Adverse events by causality, Possible, m number of events ([1]; LA 60 mg/ml (n = 3)): 0
Adverse events by causality, Possible, n (%) number of patients ([1]; LA 60 mg/ml (n = 3)): 0
Adverse events by causality, Probable, m number of events ([1]; LA 60 mg/ml (n = 3)): 3
Adverse events by causality, Probable, n (%) number of patients ([1]; LA 60 mg/ml (n = 3)): 3 (100%)
Adverse events by causality, Unlikely, m number of events ([1]; LA 60 mg/ml (n = 3)): 0
Adverse events by causality, Unlikely, n (%) number of patients ([1]; LA 60 mg/ml (n = 3)): 0
Adverse events by severity, Mild, m number of events ([1]; LA 60 mg/ml (n = 3)): 1
Adverse events by severity, Mild, n (%) number of patients ([1]; LA 60 mg/ml (n = 3)): 1 (33%)
Adverse events by severity, Moderate, m number of events ([1]; LA 60 mg/ml (n = 3)): 2
Adverse events by severity, Moderate, n (%) number of patients ([1]; LA 60 mg/ml (n = 3)): 2 (67%)
Adverse events by severity, Severe, m number of events ([1]; LA 60 mg/ml (n = 3)): 0
Adverse events by severity, Severe, n (%) number of patients ([1]; LA 60 mg/ml (n = 3)): 0
Any adverse event, m number of events ([1]; LA 60 mg/ml (n = 3)): 3
Any adverse event, n (%) number of patients ([1]; LA 60 mg/ml (n = 3)): 3 (100%)
Any serious adverse event, m number of events ([1]; LA 60 mg/ml (n = 3)): 0
Any serious adverse event, n (%) number of patients ([1]; LA 60 mg/ml (n = 3)): 0
Adverse events by causality, Possible, m number of events ([1]; LA 120 mg/ml (n = 3)): 1
Adverse events by causality, Possible, n (%) number of patients ([1]; LA 120 mg/ml (n = 3)): 1 (33%)
Adverse events by causality, Probable, m number of events ([1]; LA 120 mg/ml (n = 3)): 4
Adverse events by causality, Probable, n (%) number of patients ([1]; LA 120 mg/ml (n = 3)): 2 (67%)
Adverse events by causality, Unlikely, m number of events ([1]; LA 120 mg/ml (n = 3)): 3
Adverse events by causality, Unlikely, n (%) number of patients ([1]; LA 120 mg/ml (n = 3)): 2 (67%)
Adverse events by severity, Mild, m number of events ([1]; LA 120 mg/ml (n = 3)): 6
Adverse events by severity, Mild, n (%) number of patients ([1]; LA 120 mg/ml (n = 3)): 3 (100%)
Adverse events by severity, Moderate, m number of events ([1]; LA 120 mg/ml (n = 3)): 2
Adverse events by severity, Moderate, n (%) number of patients ([1]; LA 120 mg/ml (n = 3)): 1 (33%)
Adverse events by severity, Severe, m number of events ([1]; LA 120 mg/ml (n = 3)): 0
Adverse events by severity, Severe, n (%) number of patients ([1]; LA 120 mg/ml (n = 3)): 0
Any adverse event, m number of events ([1]; LA 120 mg/ml (n = 3)): 8
Any adverse event, n (%) number of patients ([1]; LA 120 mg/ml (n = 3)): 3 (100%)
Any serious adverse event, m number of events ([1]; LA 120 mg/ml (n = 3)): 0
Any serious adverse event, n (%) number of patients ([1]; LA 120 mg/ml (n = 3)): 0
Safety and tolerability of the treatment ([1]; patients, intradiscal 45-180 mg): safe and tolerable
Collagen II immunoreactivity [2]: no clear difference
Collagen I immunoreactivity in the NP [3]: strongly induced
